Data on 17 molecules can be found in PubChem BioAssay (NCI).

Some test systems named below: T-47D breast; MCF7 breast; BT-549 breast; NCI/ADR-RES ovarian; MDA-N.
What all share (assay): NCI anticancer screen, dose series, 48 h

Each structure is given as a SMILES string.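 48-hour exposure; five concentrations; linearly interpolated endpoints. GI50: concentration for 50% inhibition of growth. The concentration for full growth arrest is given as TGI.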

On to `Cc1cc(Cl)ccc1Nc1sc(C(=O)c2cc3cc(Cl)ccc3o2)c(N)c1C#N`, for which the TGI with T-47D breast is more than 100 µM; in the experiment with MCF7 breast it was 59.6 µM; in the experiment with BT-549 breast it was more than 100 µM; in the experiment on NCI/ADR-RES ovarian, more than 23.5 µM; in the experiment on MDA-N it was more than 100 µM.
On to `COc1cc2c(c(OC)c1OC)-c1ccc(OC)c(=O)cc1[C@@H](NC(=O)CCl)CC2`, for which the GI50 with T-47D breast was 13.2 µM; with MCF7 breast it was less than 0.01 µM; in the experiment on BT-549 breast it was less than 0.01 µM; with NCI/ADR-RES ovarian, 0.142 µM. Also, the TGI in the experiment with T-47D breast was more than 59 µM; in the experiment with MCF7 breast, 17.4 µM; with NCI/ADR-RES ovarian, more than 23.2 µM.
As for `CCCCCCCCCCCCCOC(=O)c1c(C)[nH]c(/C=C2\N=C(c3ccc[nH]3)C=C2OC)c1C`, the GI50 in the experiment with T-47D breast was 0.0583 µM; in the experiment on MCF7 breast, 0.0248 µM; in the experiment on BT-549 breast, 0.237 µM; in the experiment with NCI/ADR-RES ovarian, 0.116 µM. For the same molecule, the TGI in the experiment with T-47D breast is more than 43.4 µM; in the experiment with MCF7 breast, more than 100 µM; with BT-549 breast, 36.7 µM; in the experiment with NCI/ADR-RES ovarian, more than 100 µM.
`Cc1ccc(-c2csc(N(C(=O)N3CCN(c4cc5c(cc4F)c(=O)c(C(=O)O)cn5C4CC4)CC3)c3ccccc3)n2)cc1`: in the experiment with T-47D breast, the GI50 was 0.381 µM and the TGI was more than 100 µM. Moreover, in the experiment on BT-549 breast, the GI50 is 0.32 µM and the TGI was 3.31 µM.
Consider `COc1cc2c(c(OC)c1OC)-c1ccc([O-])c(=O)cc1[C@@H](NC(C)=O)CC2.COc1cc2c(c(OC)c1OC)-c1ccc([O-])c(=O)cc1[C@@H](NC(C)=O)CC2.[Cu+2]`, for which the GI50 is 7.95 µM in the experiment on T-47D breast, 3.33 µM in the experiment on MCF7 breast, 2.56 µM in the experiment on BT-549 breast and 6.16 µM in the experiment with NCI/ADR-RES ovarian. Besides, the TGI in the experiment with T-47D breast is more than 100 µM; with MCF7 breast, more than 100 µM; in the experiment with BT-549 breast it was more than 100 µM; with NCI/ADR-RES ovarian, 51.8 µM.
For `C[C@H](c1ccc(Cl)cc1N)N1C(=O)c2cc(I)ccc2N(CCCN2CCN(C)CC2)C(=O)[C@@H]1c1ccc(Cl)cc1`, in the experiment with MCF7 breast, the GI50 is 1.15 µM and the TGI is 2.41 µM. In addition, in the experiment with NCI/ADR-RES ovarian, the GI50 is 1.7 µM and the TGI came out at 3.6 µM.
`COc1ccc(-c2coc3ncnc(N)c23)cc1`: the GI50 in the experiment on T-47D breast, with MCF7 breast, with BT-549 breast and with NCI/ADR-RES ovarian was more than 25 µM throughout. In addition, the TGI in the experiment with T-47D breast, in the experiment on MCF7 breast, with BT-549 breast and with NCI/ADR-RES ovarian was more than 25 µM throughout.
For `CCCCCCCCN(CCCCCCCC)C(=N)c1ccnc2ccccc12`, the GI50 in the experiment with T-47D breast is 1.24 µM; in the experiment with MCF7 breast, 0.261 µM; in the experiment with NCI/ADR-RES ovarian it was 1.15 µM. Besides, the TGI in the experiment on T-47D breast was 2.93 µM; with MCF7 breast, 1.21 µM; in the experiment with NCI/ADR-RES ovarian, 2.5 µM.
On to `CCC1CCc2nc3sc(C(=O)Nc4ccccc4F)c(N)c3cc2C1` (centres undefined), for which the GI50 in the experiment with T-47D breast is more than 100 µM; with MCF7 breast, 0.318 µM; in the experiment with BT-549 breast, more than 100 µM; in the experiment on NCI/ADR-RES ovarian it was 9.5 µM. For the same molecule, the TGI in the experiment on T-47D breast, with MCF7 breast, in the experiment on BT-549 breast and with NCI/ADR-RES ovarian was more than 100 µM each time.
Take `CC(=O)O[C@H](C[C@H](C(C)C)N(C)C(=O)[C@@H](NC(=O)[C@H]1CCCCN1C)C(C)C)c1nc(C(=O)N[C@@H](Cc2ccccc2)C[C@H](C)C(=O)O)c(C)s1`: the GI50 with MCF7 breast is less than 0.0025 µM; in the experiment with BT-549 breast, less than 0.0025 µM; in the experiment on NCI/ADR-RES ovarian it was 0.0574 µM. The TGI was more than 25 µM in the experiment on MCF7 breast, 0.0627 µM in the experiment on BT-549 breast and more than 25 µM in the experiment on NCI/ADR-RES ovarian.
With `CCCCCCN(CCCCCC)C(=N)c1ccnc2ccccc12`, the GI50 in the experiment on T-47D breast was 3.04 µM; in the experiment on MCF7 breast, 2.13 µM; with BT-549 breast, 13.9 µM; in the experiment with NCI/ADR-RES ovarian it was 5.84 µM. In addition, the TGI is 13.2 µM with T-47D breast, 5.53 µM in the experiment with MCF7 breast, 27.3 µM in the experiment with BT-549 breast and 21.1 µM in the experiment with NCI/ADR-RES ovarian.
For the molecule `O=c1oc2ccc(Cl)cc2c(=O)n1-c1ccc(Cl)cc1F`, the GI50 is 0.36 µM in the experiment on T-47D breast, 0.593 µM in the experiment on MCF7 breast, 0.483 µM in the experiment with BT-549 breast and 0.532 µM in the experiment on NCI/ADR-RES ovarian. In addition, the TGI worked out at 2.2 µM with T-47D breast, 23.8 µM in the experiment on MCF7 breast, 2.44 µM in the experiment with BT-549 breast and 3.79 µM with NCI/ADR-RES ovarian.
With `CS(=O)(=O)CCNCc1ccc(-c2ccc3ncnc(Nc4ccc(OCc5ccccc5)c(C(F)(F)F)c4)c3c2)o1`, the GI50 with T-47D breast is 6.76 µM; with MCF7 breast, 4.55 µM; in the experiment on BT-549 breast it was 8.99 µM; in the experiment on NCI/ADR-RES ovarian, 7.03 µM. Further, the TGI in the experiment on T-47D breast is 18.9 µM; in the experiment with MCF7 breast it was 9.59 µM; with BT-549 breast it was more than 25 µM; in the experiment with NCI/ADR-RES ovarian, more than 25 µM.
As for `O=C1C(=O)c2cc([N+](=O)[O-])ccc2-c2ccccc21`, the GI50 in the experiment with T-47D breast was 1.76 µM; in the experiment on MCF7 breast, 1.82 µM; in the experiment on BT-549 breast, 1.83 µM; with NCI/ADR-RES ovarian it was 1.66 µM. Besides, the TGI with T-47D breast came out at 3.77 µM; in the experiment on MCF7 breast, 3.64 µM; in the experiment on BT-549 breast it was 3.22 µM; in the experiment with NCI/ADR-RES ovarian, 3.33 µM.
On to `Nc1nc(N)c2nc(CNc3ccc(C(=O)CC(CCC(=O)O)C(=O)O)cc3)cnc2n1` (centres undefined), for which the GI50 was more than 100 µM with T-47D breast, 0.0714 µM in the experiment with MCF7 breast, 0.357 µM with BT-549 breast and 0.224 µM in the experiment on NCI/ADR-RES ovarian. In addition, the TGI in the experiment on T-47D breast, in the experiment on MCF7 breast and in the experiment with NCI/ADR-RES ovarian was more than 100 µM throughout.
`Nc1ncc(-c2cnn(C3CCNCC3)c2)cc1-c1nc2ccccc2o1`: the GI50 with T-47D breast was 1.67 µM; in the experiment on MCF7 breast, 0.441 µM; in the experiment with BT-549 breast, 2.44 µM; in the experiment with NCI/ADR-RES ovarian, 3.47 µM. In addition, the TGI with T-47D breast stood at 4.88 µM; in the experiment with MCF7 breast it was 2.13 µM; in the experiment on BT-549 breast it was 10.2 µM; in the experiment on NCI/ADR-RES ovarian it was 13.4 µM.
In the case of `CS(=O)(=O)c1ccc(N/N=C/c2c(-c3ccc(S(C)(=O)=O)cc3)[nH]c3ccc(F)cc23)cc1`, the GI50 in the experiment with T-47D breast is 1.41 µM; in the experiment on MCF7 breast, 1.59 µM; with BT-549 breast, 1.44 µM; with NCI/ADR-RES ovarian it was more than 50 µM. Further, the TGI with T-47D breast, with MCF7 breast, in the experiment on BT-549 breast and in the experiment on NCI/ADR-RES ovarian was more than 50 µM each time.
